Where two headings read alike, the source gives them in different places.
Experiments:
[1] = molecular target: T1, Btbc1 (bovine heart mitochondrial cyt bc1, Complex III) (Bos taurus, UniProt P00157+P13272); details: cited from earlier work; for incubation time to reach full inhibitory capacity: classic compounds, typical
[2] = molecular target: T2, Rsbc1 (cyt bc1 from Rhodobacter sphaeroides) (Cereibacter sphaeroides, UniProt Q02761+Q02762); details: read-out: half-maximum inhibition (IC50); previous work; cited from earlier work
T2 sequence (Q02761 1-445): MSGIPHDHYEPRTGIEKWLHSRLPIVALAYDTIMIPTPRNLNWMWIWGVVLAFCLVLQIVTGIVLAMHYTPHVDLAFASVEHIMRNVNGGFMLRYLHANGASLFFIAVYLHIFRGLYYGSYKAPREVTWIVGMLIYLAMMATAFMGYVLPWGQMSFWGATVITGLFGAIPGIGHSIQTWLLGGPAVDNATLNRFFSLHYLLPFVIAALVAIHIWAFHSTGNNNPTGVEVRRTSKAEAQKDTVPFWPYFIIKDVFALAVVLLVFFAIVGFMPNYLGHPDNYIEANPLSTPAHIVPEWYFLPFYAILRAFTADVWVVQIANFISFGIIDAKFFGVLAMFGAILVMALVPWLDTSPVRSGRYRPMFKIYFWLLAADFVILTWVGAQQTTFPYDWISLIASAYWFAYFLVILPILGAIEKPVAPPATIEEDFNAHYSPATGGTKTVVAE
T2 sequence (Q02762 1-187): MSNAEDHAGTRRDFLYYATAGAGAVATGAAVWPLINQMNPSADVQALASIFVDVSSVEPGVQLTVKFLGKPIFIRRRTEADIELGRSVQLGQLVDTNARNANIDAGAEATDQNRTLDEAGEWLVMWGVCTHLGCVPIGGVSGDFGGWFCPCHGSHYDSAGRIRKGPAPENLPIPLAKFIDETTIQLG
T2 sequence (Q02760 23-285 partner): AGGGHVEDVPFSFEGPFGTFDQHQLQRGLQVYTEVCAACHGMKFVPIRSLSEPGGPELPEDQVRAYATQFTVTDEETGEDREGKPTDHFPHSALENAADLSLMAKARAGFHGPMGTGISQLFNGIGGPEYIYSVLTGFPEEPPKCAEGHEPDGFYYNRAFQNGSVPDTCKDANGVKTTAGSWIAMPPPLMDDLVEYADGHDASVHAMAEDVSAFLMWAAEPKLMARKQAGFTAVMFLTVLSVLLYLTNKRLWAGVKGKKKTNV

[3] = system: yeast cyt b L275F mutation; details: cited from earlier work
[4] = molecular target: T1, Btbc1 (bovine heart mitochondrial cyt bc1, Complex III); assay: Inhibition of bovine heart mitochondrial cyt bc1 activity; assay type: biochemical; details: IC50, incubation time 5 minutes; cyt c reduction
[5] = system: wild-type P. falciparum-infected erythrocytes; details: cited from earlier work
[6] = system: P. falciparum cyt b mutant parasites (F264L, A122T, Y268S); details: cyt b Y268S mutant parasites of the 106/1 line; cited from earlier work

For `C[C@@]1(c2ccc(Oc3ccccc3)cc2)OC(=O)N(Nc2ccccc2)C1=O` (racemic) [famoxadone], the IC50 ([1]; read-out: half-maximum inhibition (IC50), previous work) is listed as 418 nM, the IC50 [2] is listed as 1.4 nM and the “reduction in the IC50 value” [3] is listed as 20 fold.
In the case of `CCCCCCCCCCCC1=C(O)C(=O)c2scnc2C1=O` [UHDBT, 5-n-undecyl-6-hydroxy-4,7-dioxobenzothiazole], the “incubation time to reach full inhibitory capacity” value [1] is given as “less than 5 min”.
In the case of `O=C1C(O)=C([C@H]2CC[C@H](c3ccc(Cl)cc3)CC2)C(=O)c2ccccc21` [atovaquone], the IC50 [4] is listed as 2630 nM, the IC50 ([5]; P. falciparum wild-type lines) is listed as about 13 nM and the EC50 ([5]; wild-type parasites of the 106/1 line) is listed as 1.1 nM. For the same compound, the EC50 [6] was over 6760 nM.
In the case of `CO/C(=C/C(N)=O)[C@H](C)[C@H](/C=C/c1csc(-c2csc([C@@H](C)/C=C/C=C/C(C)C)n2)n1)OC` [myxothiazol], the “incubation time to reach full inhibitory capacity” value [1] is given as “less than 5 min”.
In the case of `C/C=C(C)/C=C/C=C/[C@H](OC)[C@@H](C)[C@@H](OC)[C@@H](C)CCc1oc2c(O)c(OC)cc(OC)c2c(=O)c1C` [stigmatellin], the IC50 [4] is given as 1 nM and the “incubation time to reach full inhibitory capacity” value [1] is given as “less than 5 min”.
